Where two headings read alike, the source gives them in different places.
Columns and labels:
[1] = test system: wild-type HIV-1 IIIB strain; assay: Antiviral activity in MT4 LTR-EGFP cellular assay; type: cell-based; conditions: Human immunodeficiency virus 1, 72 h; wild-type HIV-1 IIIB, MT4 LTR-EGFP cells, three days after infection; pEC50 = -log10(EC50); read-out: Antiviral Activity IIIB pEC50 (converted)
Method: (§1) Assay 1 &2: Antiviral Activity/Toxicity
The compounds of the present invention were tested for antiviral activity in a cellular assay, which was performed according to the following procedure.
The human T-cell line MT4 is engineered with Green Fluorescent Protein (GFP) and an HIV-specific promoter, HIV-1 long terminal repeat (LTR). This cell line is designated MT4 LTR-EGFP, and can be used for the in vitro evaluation of anti-HIV activity of investigational compounds. In HIV-1 infected cells, the Tat protein is produced which upregulates the LTR promotor and finally leads to stimulation of the GFP reporter production, allowing measuring ongoing HIV-infection fluorometrically.
(§2) The ratio of CC50 to EC50 is defined as the selectivity index (SI) and is an indication of the selectivity of the anti-HIV activity of the inhibitor. The ultimate monitoring of HIV-1 infection and cytotoxicity is done using a scanning microscope. Image analysis allows very sensitive detection of viral infection. Measurements are done before cell necrosis, which usually takes place about five days after infection, in particular measurements are performed three days after infection.
A pEC50 value corresponds to −log10(EC50). A pCC50 value corresponds to −log10(CC50).

[2] = Cytotoxicity in mock-infected MT4 CMV-EGFP cells; type: cell-based; conditions: human, pCC50 = -log10(CC50), read-out: Toxicity MT4 pCC50 (converted)
From the text: as §1
Analogously, MT4 cells are engineered with GFP and the constitutional cytomegalovirus (CMV) promotor. This cell line is designated MT4 CMV-EGFP, and can be used for the in vitro evaluation of cytotoxicity of investigational compounds. In this cell line, GFP levels are comparably to those of infected MT4 LTR-EGFP cells. Cytotoxic investigational compounds reduce GFP levels of mock-infected MT4 CMV-EGFP cells.
as §2, with “Effective concentration values such as 50% effective concentration (EC50) can be determined and are usually expressed in μM. An EC50 value is defined as the concentration of test compound that reduces the fluorescence of HIV-infected cells by 50%. The 50% cytotoxic concentration (CC50 in μM) is defined as the concentration of test compound that reduces fluorescence of the mock-infected cells by 50%. The ratio” for “The ratio”
Table 2 lists pEC50 values against the wild-type HIV-1 IIIB strain as well as pCC50 values for a selected number of compounds of the invention. A pEC50 value corresponds to −log10(EC50). A pCC50 value corresponds to −log10(CC50).

[3] = in vitro; type: in vitro ADME, human; conditions: human, pH 7.4
From the text: Assay 3: Metabolic Stability of Test Compounds (HLM15′)
Sub-cellular tissue preparations are made according to Gorrod et al. (Xenobiotica, 5, pp. 453-462 (1975)) by centrifugal separation after mechanical homogenization of tissue. Human liver tissue is rinsed in ice-cold 0.1 M Tris-HCl (pH 7.4) buffer to wash excess blood. Tissue is then blotted dry, weighed and chopped coarsely using surgical scissors. The tissue pieces are homogenized in 3 volumes of ice-cold 0.1 M phosphate buffer (pH 7.4) using either a Potter-S (Braun, Italy) equipped with a Teflon pestle or a Sorvall Omni-Mix homogenizer, for 7×10 sec. In both cases, the vessel is kept in/on ice during the homogenization process. Tissue homogenates are centrifuged at 9000×g for 20 min at 4° C. using a Sorvall centrifuge or Beckman Ultracentrifuge. The resulting supernatant can be stored at −80° C. and is designated ‘S9’. The S9 fraction is centrifuged at 100,000×g for 60 min at 4° C. using a Beckman ultracentrifuge. The resulting supernatant is carefully aspirated, aliquoted and designated ‘cytosol’. The pellet is re-suspended in 0.1 M phosphate buffer (pH 7.4) in a final volume of 1 ml per 0.5 g original tissue weight and designated ‘microsomes’. All sub-cellular fractions are aliquoted, immediately frozen in liquid nitrogen and stored at −80° C. until use.
Heat-inactivated (10 min at 95° C.) ‘S9’ or microsomes were used for blank experiments. Reaction mixtures were incubated at 37° C. for 5 min, after which the reaction was started by the addition of 0.8 mM β-NADP. The reaction was incubated for 0 or 15 min. Next, the reaction was stopped by addition of 2 volumes of DMSO (or acetonitrile). Samples were centrifuged (10 min, 900×g) and analyzed by LC-MS.

[4] = target: T1, CYP3A4 (Homo sapiens, UniProt P08684); assay: CYP450 inhibition, fluorescent substrate assay, CYP3A4; type: biochemical; conditions: 10 μM test compound; for inhibition at 10 min, 10 μM: E. coli expressed CYP3A4, pH 7.4, probe DBF (1 μM), substrate DBF 1 μM, read-out: 3A4-DBF % inh.
T1 construct: host or cells: E. coli
Method: (§3) Assay 4: CYP450 Inhibition […] This fluorescent molecule was measured using a fluorescent plate reader (Victor2 (Wallac) or Fluoroskan (Labsystems)). Compounds inhibiting the enzymatic reaction will result in a decrease of fluorescent signal. CYP P450 enzymes were prepared in house or commercially bought and stored at −80° C. [table] The assay was performed in black 96 well Costar plates. Test compounds were added to a CYP P450 enzyme solution in the presence of an NADPH generating system. After 5 min of preincubation at 37° C., the freshly prepared, phosphate buffered (pH 7.4) substrate solution was added. Known CYP P450 inhibitors were used as positive controls, negative controls were run without CYP P450 enzyme. For final reaction mixture concentrations, see Table 6. […] Then, the reaction was stopped by the addition of 200 μl acetonitrile, and the fluorescent signal was detected. [table] […] Inhibition of TMC114 Metabolisation

[5] = target: CYP2C9 (Homo sapiens, UniProt P11712); assay: CYP450 inhibition, fluorescent substrate assay, CYP2C9; type: biochemical; conditions: pH 7.4
Method: as §3

[6] = target: T2, CYP2D6 (Homo sapiens, UniProt P10635); assay: CYP450 inhibition, fluorescent substrate assay, CYP2D6; type: biochemical; conditions: E. coli expressed CYP2D6, pH 7.4, probe AMMC (3 μM), 10 μM test compound, substrate AMMC 3 μM, read-out: 2D6-AMMC % inh.
T2 construct: host or cells: E. coli
Method: as §3

[7] = target: T3, CYP1A2 (Homo sapiens, UniProt P05177); assay: CYP450 inhibition, fluorescent substrate assay, CYP1A2; type: biochemical; conditions: E. coli expressed CYP1A2, pH 7.4, probe CEC (5 μM), 10 μM test compound, substrate CEC 5 μM, read-out: 1A2-CEC % inh.
T3 construct: host or cells: E. coli
T3 sequence (P05177 1-516): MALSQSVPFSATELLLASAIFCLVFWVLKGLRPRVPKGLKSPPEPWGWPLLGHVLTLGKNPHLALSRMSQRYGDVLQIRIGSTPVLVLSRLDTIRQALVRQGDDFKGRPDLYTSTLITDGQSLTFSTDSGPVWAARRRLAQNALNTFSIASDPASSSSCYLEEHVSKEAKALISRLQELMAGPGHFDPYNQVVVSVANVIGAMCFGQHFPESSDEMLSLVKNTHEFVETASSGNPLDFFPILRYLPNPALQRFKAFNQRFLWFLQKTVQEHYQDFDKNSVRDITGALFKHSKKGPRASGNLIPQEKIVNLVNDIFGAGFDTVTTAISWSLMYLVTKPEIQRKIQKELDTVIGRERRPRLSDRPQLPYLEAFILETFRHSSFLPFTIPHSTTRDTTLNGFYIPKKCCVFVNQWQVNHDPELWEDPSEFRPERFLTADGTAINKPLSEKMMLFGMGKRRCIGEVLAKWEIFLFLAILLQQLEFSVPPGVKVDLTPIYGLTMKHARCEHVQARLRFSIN
Method: as §3

[8] = target: T4, CYP2C19 (Homo sapiens, UniProt P33261); assay: CYP450 inhibition, fluorescent substrate assay, CYP2C19; type: biochemical; conditions: E. coli expressed CYP2C19, pH 7.4, probe CEC (25 μM), 10 μM test compound, substrate CEC 25 μM, read-out: 2C19-CEC % inh.
T4 construct: host or cells: E. coli
Method: as §3

[9] = E. coli expressed CYP3A4, pH 7.4, probe BFC (150 μM), substrate BFC 150 μM, read-out: 3A4-BFC % inh.
[10] = E. coli expressed CYP3A4, pH 7.4, probe BQ (60 μM), substrate BQ 60 μM, read-out: 3A4-BQ % inh.

T4 sequence (P33261 whole entry): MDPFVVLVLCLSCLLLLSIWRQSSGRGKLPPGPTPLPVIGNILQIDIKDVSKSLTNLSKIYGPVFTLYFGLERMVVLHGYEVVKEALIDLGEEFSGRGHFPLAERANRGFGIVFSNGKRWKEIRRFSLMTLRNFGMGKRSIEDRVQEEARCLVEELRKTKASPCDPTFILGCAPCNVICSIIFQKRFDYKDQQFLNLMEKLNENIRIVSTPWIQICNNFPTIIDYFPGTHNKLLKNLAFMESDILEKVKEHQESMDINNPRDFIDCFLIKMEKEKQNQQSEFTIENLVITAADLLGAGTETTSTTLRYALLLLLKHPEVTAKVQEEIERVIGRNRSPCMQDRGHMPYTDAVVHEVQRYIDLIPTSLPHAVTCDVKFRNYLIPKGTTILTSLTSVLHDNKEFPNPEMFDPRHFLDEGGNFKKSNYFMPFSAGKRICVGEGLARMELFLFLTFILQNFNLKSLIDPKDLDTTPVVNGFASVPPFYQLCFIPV
T2 sequence (P10635 whole entry): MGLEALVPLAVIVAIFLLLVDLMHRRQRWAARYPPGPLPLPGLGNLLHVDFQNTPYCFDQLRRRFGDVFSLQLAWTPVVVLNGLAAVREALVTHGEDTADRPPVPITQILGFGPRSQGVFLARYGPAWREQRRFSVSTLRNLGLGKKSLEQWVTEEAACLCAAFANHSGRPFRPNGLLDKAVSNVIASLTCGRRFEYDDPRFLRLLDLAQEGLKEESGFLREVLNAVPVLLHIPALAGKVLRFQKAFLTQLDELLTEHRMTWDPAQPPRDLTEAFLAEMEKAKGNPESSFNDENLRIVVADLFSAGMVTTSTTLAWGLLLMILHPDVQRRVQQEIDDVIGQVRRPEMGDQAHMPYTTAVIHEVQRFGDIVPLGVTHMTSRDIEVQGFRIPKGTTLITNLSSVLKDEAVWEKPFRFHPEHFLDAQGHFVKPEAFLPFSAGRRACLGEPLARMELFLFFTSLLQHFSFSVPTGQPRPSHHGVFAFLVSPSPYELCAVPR
CYP2C9, sequence (P11712 whole entry): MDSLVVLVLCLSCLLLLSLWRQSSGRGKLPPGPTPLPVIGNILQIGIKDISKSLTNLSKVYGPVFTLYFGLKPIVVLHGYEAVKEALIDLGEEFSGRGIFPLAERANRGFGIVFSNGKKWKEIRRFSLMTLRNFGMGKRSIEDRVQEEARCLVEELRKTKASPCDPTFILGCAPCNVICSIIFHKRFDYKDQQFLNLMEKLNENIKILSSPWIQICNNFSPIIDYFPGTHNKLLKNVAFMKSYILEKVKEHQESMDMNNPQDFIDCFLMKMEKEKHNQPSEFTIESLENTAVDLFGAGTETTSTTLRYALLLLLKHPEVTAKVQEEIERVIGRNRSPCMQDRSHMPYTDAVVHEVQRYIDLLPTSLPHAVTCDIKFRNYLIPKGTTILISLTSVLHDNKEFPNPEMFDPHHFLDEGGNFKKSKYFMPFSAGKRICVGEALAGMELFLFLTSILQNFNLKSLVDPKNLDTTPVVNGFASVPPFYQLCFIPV
T1 sequence (P08684 whole entry): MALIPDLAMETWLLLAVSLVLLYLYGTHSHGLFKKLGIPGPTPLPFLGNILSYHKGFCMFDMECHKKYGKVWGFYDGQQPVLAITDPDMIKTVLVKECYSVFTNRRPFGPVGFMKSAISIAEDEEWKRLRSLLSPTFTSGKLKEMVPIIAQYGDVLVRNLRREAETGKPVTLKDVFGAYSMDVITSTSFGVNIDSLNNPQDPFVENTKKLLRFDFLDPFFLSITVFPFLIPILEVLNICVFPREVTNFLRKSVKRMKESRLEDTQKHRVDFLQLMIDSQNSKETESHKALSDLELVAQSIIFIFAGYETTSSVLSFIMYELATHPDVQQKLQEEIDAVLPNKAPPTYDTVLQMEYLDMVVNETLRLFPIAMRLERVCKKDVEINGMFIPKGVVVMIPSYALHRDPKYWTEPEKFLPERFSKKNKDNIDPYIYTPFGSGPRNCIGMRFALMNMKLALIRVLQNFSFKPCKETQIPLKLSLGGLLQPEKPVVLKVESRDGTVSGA

| Compound | EC50 [1] | CC50 at 3 days [2] | recovery at 15 min, 5 μM [3] | inhibition at 30 min, 10 μM [4, 9] | inhibition at 30 min, 10 μM [4, 10] | inhibition at 10 min, 10 μM [4] | inhibition at 30 min, 10 μM [5] | inhibition at 45 min, 10 μM [6] | inhibition at 15 min, 10 μM [7] | inhibition at 30 min, 10 μM [8] |
| --- | --- | --- | --- | --- | --- | --- | --- | --- | --- | --- |
| CC(C)CN(C[C@@H](O)[C@H](Cc1ccccc1)NC(=O)OCc1cncs1)C(=O)c1ccncc1 [Compound C8] | > 100 µM | > 100 µM | 81% | 91% | 79% | 91% | 95% | 39% | 4% | 76% |
| CC(C)CN(C[C@@H](O)[C@H](Cc1ccccc1)NC(=O)OCc1cncs1)C(=O)c1ccccn1 [Compound C9] | > 100 µM | > 100 µM | 55% | 91% | 78% | 89% | 85% | 66% | 4% | 64% |
| Cc1cccc(C(=O)N(CC(C)C)C[C@@H](O)[C@H](Cc2ccccc2)NC(=O)OCc2cncs2)c1 [Compound C10] | > 100 µM | > 100 µM | 47% | 95% | 79% | 93% | 96% | 62% | 33% | 92% |
| CC(C)CN(C[C@@H](O)[C@H](Cc1ccccc1)NC(=O)OCc1cncs1)C(=O)c1cccc(C(F)(F)F)c1 [Compound C11] | 38 µM | 34.7 µM | 52% | 94% | 78% | 99% | 97% | 86% | 45% | 100% |
| CC(C)CN(C[C@@H](O)[C@H](Cc1ccccc1)NC(=O)OCc1cncs1)C(=O)c1cnc2ccccc2n1 [Compound C12, 1S-2R-{1-Benzyl-2-hydroxy-3-[isobutyl-(quinoxaline-2-carbonyl)-amino]-propyl}-carbamic acid thiazol-5-ylmethyl ester] | 60.3 µM | 61.7 µM | 67% | 70% | 79% | 93% | 92% | 0% | 21% | 81% |
| CC(C)CN(C[C@@H](O)[C@H](Cc1ccccc1)NC(=O)OCc1cncs1)C(=O)c1cccnc1 [Compound C13] | > 100 µM | > 100 µM | 69% | 81% | 84% | 94% | 95% | 64% | 8% | 67% |
| CC(C)CN(C[C@@H](O)[C@H](Cc1ccccc1)NC(=O)OCc1cncs1)C(=O)c1ccc[nH]1 [Compound C14] | 79.4 µM | 89.1 µM | 24% | 84% | 80% | 91% | 98% | 67% | 56% | 87% |
| CC(C)CN(C[C@@H](O)[C@H](Cc1ccccc1)NC(=O)OCc1cncs1)C(=O)c1cccc(Cl)c1 [Compound C15] | 50.1 µM | 42.7 µM | 57% | 75% | 80% | 92% | 97% | 41% | 51% | 92% |
| CC(C)CN(C[C@@H](O)[C@H](Cc1ccccc1)NC(=O)OCc1cncs1)C(=O)c1ccc(Cl)cc1 [Compound C16] | 38.9 µM | 40.7 µM | 59% | 71% | 82% | 92% | 97% | 43% | 50% | 90% |
